Reference: article PMC10716780, “The multistep oxidation of cholesterol to pregnenolone by human cytochrome P450 11A1 is highly processive” (The Journal of Biological Chemistry, 2023)

Assays:
bovine P450 11A1 [1] = tested on: bovine P450 11A1; design: method as in PMID 217878; settings: equilibrium dialysis, bovine P450 11A1 ref 26; cited from earlier work
bovine P450 11A1 [2] = tested on: bovine P450 11A1; design: method as in PMID 7056749; settings: bovine P450 11A1, within dead time of stopped-flow ref 12; cited from earlier work
human P450 11A1 [3] = target: T1, human P450 11A1 (Homo sapiens, UniProt P05108); test: Kinetic modeling of single-turnover reactions (KinTek Explorer); format: biochemical; design: M A S T R S P R P F N E I P S P G D N; Met-Ala (N-terminal start residues in place of the transit peptide and Ile40) (N); made in house; host or cells: E. coli (P450 11A1 in C41(DE3); Adx and AdR in E. coli); settings: for k^+ of oxidation step of enzyme-bound sterol, high Adx: high Adx (50 μM); for k^+ of oxidation step of enzyme-bound sterol, high Adx / k^+ of oxidation step of enzyme-bound sterol, low Adx: adjusted to fit single-turnover data; for k^+ of oxidation step of enzyme-bound sterol, low Adx: low Adx (5 μM)
T1 sequence (P05108 41-521 limits assumed): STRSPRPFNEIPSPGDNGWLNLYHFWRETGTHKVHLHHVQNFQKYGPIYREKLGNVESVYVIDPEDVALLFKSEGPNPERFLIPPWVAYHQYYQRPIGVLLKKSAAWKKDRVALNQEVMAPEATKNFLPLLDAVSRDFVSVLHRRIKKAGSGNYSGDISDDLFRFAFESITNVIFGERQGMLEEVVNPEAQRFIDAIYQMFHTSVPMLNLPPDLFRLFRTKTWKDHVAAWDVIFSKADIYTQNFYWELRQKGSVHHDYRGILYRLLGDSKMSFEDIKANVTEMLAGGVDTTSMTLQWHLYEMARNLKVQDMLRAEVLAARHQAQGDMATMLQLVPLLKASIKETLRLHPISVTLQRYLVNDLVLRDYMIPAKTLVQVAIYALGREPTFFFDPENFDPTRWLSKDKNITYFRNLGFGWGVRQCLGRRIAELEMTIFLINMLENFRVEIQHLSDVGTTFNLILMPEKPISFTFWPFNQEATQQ
T1 sequence (P00257 59-186 partner): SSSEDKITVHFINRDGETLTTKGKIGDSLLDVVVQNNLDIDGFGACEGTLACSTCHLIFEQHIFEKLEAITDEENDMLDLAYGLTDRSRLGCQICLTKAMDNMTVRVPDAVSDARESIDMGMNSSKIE
Text: A minimal kinetic model was assembled to fit the data of the single-turnover reactions (Fig. 9) using the parameters listed in Table 2 (Fig. 14). […] Each oxidation reaction is irreversible, and thus the rates of the reverse reactions (k-2, k-4, k-6) were set to zero. The single-turnover data (Fig. 9) were fit to a single exponential to calculate the first-order decay of cholesterol, that is, the rate of cholesterol 22R-hydroxylation (k2). […] The rate of 20R-hydroxylation of 22R-OH cholesterol (k4) was estimated similarly to k2 from exponential fitting of first-order formation of the 20R,22R-(OH)2 sterol from the 22R-OH sterol.
Data were imported into KinTek Explorer software (v. 11.01, KinTek, https://kintekcorp.com/software) ([63]) as txt files and processed using an Apple computer (operating system 11.6.2). The indicated kinetic model (Table 2) was used with the enzyme and substrate concentrations, first estimating the rate of disappearance of the substrate cholesterol.

human P450 11A1 [4] = target: T2, human P450 11A1 (Homo sapiens, UniProt P05108); test: Stopped-flow ketoconazole trap, koff and binding rate measurements; settings: for koff: read-out: koff of P450-sterol complex, 2 μM P450 11A1 + 2 μM steroid mixed with 20 μM ketoconazole, 23 °C, without Adx
T2 construct: M A S T R S P R P F N E I P S P G D N; Met-Ala (N-terminal start residues in place of the transit peptide and Ile40) (N); made in house; host or cells: E. coli C41(DE3) with GroES/GroEL, vector pET23C(+)
T2 sequence (P05108 41-521 limits assumed): T1 sequence (P05108 41-521 limits assumed)
Protocol: Interaction of the azole nitrogen atom with the P450 heme produces a bathochromic (“type II”) spectral shift (to ∼430 nm)—an inverse effect of the binding of substrate.
Measurement of kon rate(s) was not performed because the sterols are delivered in a solution of HPCD, from which the dissociation rate is not known.
Determinations of koff rates were performed as previously described ([33]).

[5] = read-out: k^+ for ligand binding to P450 11A1 (kon) used in model, set to the value determined for P450 11A1 and ketoconazole
[6] = read-out: k^− for ligand dissociation (koff) used in model, values measured by stopped-flow spectroscopy

Compound | Kd (bovine P450 11A1 [1]) | rates of binding and dissociation (bovine P450 11A1 [2]) | k^+ of oxidation step of enzyme-bound sterol, high Adx (human P450 11A1 [3]) | k^+ of oxidation step of enzyme-bound sterol, low Adx (human P450 11A1 [3]) | kon (human P450 11A1 [3]; [5]) | koff (human P450 11A1 [3]; read-out: k^− for ligand dissociation (koff) used in model) | k^+ for ligand binding to P450 11A1 (kon) used in model (human P450 11A1 [3]; set to the value determined for P450 11A1 and ketoconazole, listed as Q) | k^+ for ligand binding to P450 11A1 (kon) used in model (human P450 11A1 [3]; set to the value determined for P450 11A1 and ketoconazole, listed as R) | kon (human P450 11A1 [3]; set to the value determined for P450 11A1 and ketoconazole, read-out: k^+ for ligand binding to P450 11A1 (kon) used in model) | koff (human P450 11A1 [3]; values measured by stopped-flow spectroscopy, read-out: k^− for ligand dissociation (koff) used in model) | koff of P450-sterol complex (human P450 11A1 [4]; 2 μM P450 11A1 + 2 μM steroid mixed with 20 μM ketoconazole, 23 °C, without Adx) | koff (human P450 11A1 [4]) | koff (human P450 11A1 [3]; [6]) | k^+ for ligand binding to P450 11A1 (kon) used in model (human P450 11A1 [3]; set to the value determined for P450 11A1 and ketoconazole, listed as P) | k^− for ligand dissociation (koff) used in model (human P450 11A1 [3]; values measured by stopped-flow spectroscopy, listed as P) | observed binding rate (human P450 11A1 [4]; 20 μM final concentration, in HPCD) | apparent kon slower than kon of ketoconazole to unliganded P450 (human P450 11A1 [4]; in the presence of HPCD) | kon (human P450 11A1 [4]; read-out: apparent kon) | k^+ for ligand binding to P450 11A1 (kon) used in model (human P450 11A1 [3]; set to the value determined for P450 11A1 and ketoconazole, listed as S)
CC(C)CC[C@@H](O)[C@](C)(O)[C@H]1CC[C@H]2[C@@H]3CC=C4C[C@@H](O)CC[C@]4(C)[C@H]3CC[C@]12C [20R,22R-(OH)2 Chol, (20R,22R)-Cholest-5-ene-3β,20,22-triol] | 81 nM | > 300 s⁻¹ | 1.7 s⁻¹ | 0.55 s⁻¹ | 500000 M⁻¹ s⁻¹ | 0.39 s⁻¹ | 530000 M⁻¹ s⁻¹ | – | – | – | – | – | – | – | – | – | – | – | –
CC(=O)[C@H]1CC[C@H]2[C@@H]3CC=C4C[C@@H](O)CC[C@]4(C)[C@H]3CC[C@]12C [Pregnenolone] | – | – | – | – | – | – | – | 530000 M⁻¹ s⁻¹ | 500000 M⁻¹ s⁻¹ | 0.55 s⁻¹ | – | – | – | – | – | – | – | – | –
CC(C)CC[C@@H](O)[C@@H](C)[C@H]1CC[C@H]2[C@@H]3CC=C4C[C@@H](O)CC[C@]4(C)[C@H]3CC[C@]12C [22R-OH Chol, 22R-hydroxycholesterol] | 4.9 nM | – | 1.5 s⁻¹ | 0.4 s⁻¹ | 500000 M⁻¹ s⁻¹ | – | – | – | – | – | 0.044 ± 0.001 s⁻¹ | 0.04 s⁻¹ | 0.04 s⁻¹ | 530000 M⁻¹ s⁻¹ | 0.044 s⁻¹ | – | – | – | –
CC(C)CCC[C@@H](C)[C@H]1CC[C@H]2[C@@H]3CC=C4C[C@@H](O)CC[C@]4(C)[C@H]3CC[C@]12C [Cholesterol] | – | > 300 s⁻¹ | 0.12 s⁻¹ | 0.04 s⁻¹ | 500000 M⁻¹ s⁻¹ | – | – | – | – | – | – | 0.24 ± 0.01 s⁻¹ | 0.24 s⁻¹ | – | – | 0.05 s⁻¹ | > 200 fold | 2500 M⁻¹ s⁻¹ | 530000 M⁻¹ s⁻¹
